Patent publication US10519132B2, “Isocorydine derivatives, preparation method and use thereof” (Lanzhou Institute of Chemical Physics, Chinese Academy of …, priority 2017, dated 2019)
In brackets after ≈: the same amount, converted by molar mass. Where two headings read alike, the source gives them in different places.

Assays:
[1] = tested on: human liver cancer cell strain HepG2; experiment: MTT growth inhibition on HepG2; format: cell-based; settings: Homo sapiens, read-out: IC50 HepG2;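 further: adherent cells in 96-well plates treated with a concentration series for 24, 48 or 72 h, MTT absorbance read at 490 nm, inhibition computed relative to untreated control wells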
Method: (§1) By using an MTT method, a sample solution to be tested was added to a 96-well plate in which cancer cells were adherently grown. Culturing was performed for a certain period, and the growth inhibition effect of a compound on a human cancer cell strain for primary screening was measured to determine the anti-cancer activity of the compound.
(§2) Cell culture: A cell incubator was set to conditions of 37° C., 5% CO2, and a saturated humidity, cells were cultured under these conditions, and the cell medium was a DMEM complete medium, wherein 10% fetal bovine serum, 100 IU/mL penicillin, and 100 μg/mL streptomycin were comprised.
(§3) The single cell suspension was diluted to 5×10^3/100 μL after counting, inoculated on a 96-well cell culture plate (triplicate), and adherently cultured overnight;
(§4) After 24 h of adhesion, the complete medium was discarded, 100 μL-sample-solutions to be tested having different concentrations were sequentially added to the 96-well plate according to a concentration gradient, and incubations were continued for 24 h, 48 h, and 72 h;
(§5) The culture liquid was discarded, a 0.5 mg/mL MTT diluted working liquid was added, and incubation was performed for 4 h by placing in an incubator;
(§6) The culture liquid was discarded, 100 μL of DMSO was added, low-speed oscillation was performed for 10 min by placing on a shaker, and the spectrophotometric value of each well was measured at a wavelength of 490 nm by using a microplate reader. Statistical analysis was performed and tumor cell growth inhibition rate was calculated according to the equation: Growth inhibition rate=(OD value of control group−OD value of experimental group)/OD value of control group.
(§7) Culturing was performed for a certain period, the growth inhibition effect of a compound on 3 human cancer cell strains for primary screening was measured to determine the anti-cancer activity of the compound, and a growth inhibition curve was plotted.

[2] = tested on: ascites hepatoma H22 induced solid tumor; experiment: In vivo tumor growth inhibition in mice bearing H22; parameters: species or system white Kunming mice; settings: Table 4, intraperitoneal, 10 d
Text: 1. Tumor strain and animal for experiments: H22 liver cancer cell strain was provided by Teaching and Research Office, School of Basic Medical Sciences, Lanzhou University/Key Lab of Preclinical Study for New Drugs of Gansu Province, and was passage and preserved by periodically intraperitoneal inoculation. White Kunming mice (18.0-22.0 g) were provided by Lanzhou Veterinary Institute, Chinese Academy of Agriculture.
2. Establishment of tumor models and method of grouping: a third passage of mice which were well grown 7 d after intraperitoneal inoculation of H22 tumor cells were sacrificed by cervical dislocation, and placed and soaked in 75% alcohol for 10 min. After 3 mL of sterile physiological saline was intraperitoneally injected, milky tumor cell ascites was withdrawn from the abdominal cavity, and formulated into a tumor cell suspension with sterile physiological saline, with a cell number of 1.5×10^7 mL^−1. 80 white Kunming mice were taken, and 0.2 mL of the tumor cell suspension was subcutaneously inoculated to the left axilla of each mouse. 24 h after the inoculation of tumor cells, the mice were divided into 8 groups according to body weights, 10 mice for each group. […] All of the administration manners were intraperitoneal administration.
3. Result of experiments: On the second day of modeling, continuous administration was performed for 10 d. Administration was stopped on the 11th d, and mice were sacrificed by cervical dislocation on the next day.
Test method: For the test method, see Example 24. Results can be seen in FIG. 15, FIG. 16, and Table 5.
Method: Modeling was performed by using the method of establishing H22 white mice tumor-bearing model of Example 24. The in vivo tumor growth inhibition activity of COM33 on H22 model mice was measured in an intraperitoneal injection administration manner.

HepG2 cells = experiment: Apoptosis induction, Annexin V and PI double-staining, flow cytometry; format: cell-based, human; settings: HepG2, 24 h; sorafenib 4 μg/mL; combination 4 μg/mL sorafenib+5 μg/mL FICD
Description: Different concentrations of FICD were added on the second day, culture was continued for 24 h, cells were collected and washed 3 times with precooled PBS, and adherent cells were digested with trypsin free of EDTA. The solutions were combined, centrifuged, and washed 3 times again with precooled PBS. 400 μL of solution containing 5 μL of V-FITC and 10 μL of PI was added, incubation was performed at room temperature under protection from light, and detection was performed by flowcytometry after 30 min.

liver cancer cells = experiment: MTT growth inhibition on liver cancer cells; format: cell-based; settings: Homo sapiens
Method: as §1, §2
The single cell suspension was diluted to 5×10^3/100 μL after counting, inoculated on a 96-well cell culture plate (triplicate), and adherently cultured overnight; […]
as §6

Vimentin = experiment: Western blotting, Vimentin expression in HepG2 cells; format: cell-based, human; settings: FICD experiment (FIG. 12)
Description: Method: Gel electrophoresis of protein samples. Gel formulation: All components were added to a small beaker according to a formulation of a separation gel, uniformly mixed with slightly shaking to prevent the generation of bubbles, quickly applied to a seam of a glass plate with a 1 mL pipette, and then blocked with double distilled water to prevent oxidation. After 30 min, the separation gel solidified, the double distilled water thereof was poured off, waster was suctioned with a filter paper, a 5% concentration gel was formulated, TEMED was finally loaded onto the glass plate, and a 1.0 mm comb was inserted into the concentration gel and placed at room temperature for 30 min. The comb was slightly, vertically, and carefully pulled up, various groups of 20 μL protein samples were pipetted with a microsyringe, an equal volume of a loading buffer and an equal volume of a loading buffer containing 3 μL of Marker were separately added to a loading well, an electrophoresis instrument was switched on after electrodes were plugged, gels were run at 75V for 30 min, and the voltage was changed to 120V and gels were run for 2 h when bromophenol blue reaches the separation gel. Membrane transfer: A PVDF membrane having a suitable size was cut according to the size of the gel, placed in a methanol solution for 1 min, lifted, and placed and soaked together with a well cut filter paper in a previously precooled membrane transfer buffer. A sponge pad, three layers of filter paper, a gel, three layers of filter paper, and a sponge pad, in this order from top to bottom, were placed in a membrane transfer tank, and a precooled membrane transfer buffer was then added. Several ice bags were placed circumferentially to prevent an excessively hot external environment, and electrodes were plugged and membrane transfer was performed at a constant current of […] for 2.5 hours. Blocking and incubation of antibodies: A transferred membrane was cut into desired bands, which were placed in a blocking solution of 5% skim milk powder, placed on a shaker, and shaken at room temperature at a low speed for 1 h. A primary antibody was diluted with the blocking solution, a corresponding antibody was pipetted and added to a zip lock bag, the PVDF membrane was then placed in the antibody dilution, bubbles in the zip lock bag were evacuated, and the zip lock bag was sealed and placed in a refrigerator at 4° C. overnight. The membrane was withdrawn from the zip lock bag on the second day, and placed in a clean dish. A TBST solution was added and washed 3 times on a low-speed shaker, 10 min for each time. […]

[3] = tested on: human gastric cancer cell strain MGC-803; experiment: MTT growth inhibition on MGC-803; settings: Homo sapiens;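 further: adherent cells exposed to compound over a concentration gradient for 24, 48 and 72 h, MTT absorbance at 490 nm, inhibition relative to untreated control wells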
Method: as §1, §2, §3, §4, §5, §6, §7

IC50 ([1]; HepG2, 48 h, after 48 h of action): 10.1 ± 1.2 µg/mL | IC50 ([1]; HepG2, Table 1, MTT): 17.2 µM | IC50 ([1]; HepG2, Table 2, MTT): 17.2 µM | IC50 (liver cancer cells): 10 to 20 µg/mL (≈ 17.3 to 34.6 µM) | IC50 ([3]; MGC-803, 48 h, read-out: IC50 MGC-803, after 48 h of action): 15.6 ± 2.4 µg/mL | IC50 ([3]; MGC-803, read-out: IC50 MGC-803, Table 1, MTT): 16.6 µM | IC50 ([3]; MGC-803, read-out: IC50 MGC-803, Table 2, MTT): 16.6 µM
SMILES: COc1cc(NC(=O)Nc2ccc(Cl)c(C(F)(F)F)c2)c2c(c1O)-c1c(OC)c(OC)cc3c1C(C2)N(C)CC3 (stereo not drawn) [Compound 1]
Tumor inhibition rate (%) ([2]; high FICD dosage 150 mg/Kg): 50.8% | Tumor inhibition rate (%) ([2]; low FICD dosage 50 mg/Kg): 39.1% | Tumor inhibition rate (%) ([2]; middle FICD dosage 100 mg/Kg): 45.6% | apoptosis rate (HepG2 cells): 11.93% | Vimentin expression (Vimentin): significantly increased
